Measurements published in patent US10870647B2, “Imidazopyridine derivative, method for preparing same, and pharmaceutical composition containing same as active ingredient for preventing or treating cancer” (DAEGU-GYEONGBUK MEDICAL INNOVATION FOUNDATION, priority 2016, dated 2020).
Like-named read-outs stand apart in the source and are kept apart here.

Columns and labels:
Test in all cases: Kinase selectivity, scanMAX Kinase assay panel (DiscoverX), % control at 1 uM
Type in all cases: binding
[1] = target: T1, scanMAX Kinase assay panel (Homo sapiens, UniProt P00519, H396P); conditions: 1 uM, read-out: Percent Control (%)
T1 construct: purchased DiscoverX
In short: (§1)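 Activity was called for kinases showing % control under 35, calculated from compound signal relative to positive and negative controls. Each compound screened at 1 uM against the DiscoverX scanMAX panel.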

[2] = target: T2, scanMAX Kinase assay panel (Homo sapiens, UniProt O60331); conditions: PIP5K1C; 1 uM; read-out: Percent Control (%)
T2 construct: purchased DiscoverX
T2 sequence (O60331 whole entry): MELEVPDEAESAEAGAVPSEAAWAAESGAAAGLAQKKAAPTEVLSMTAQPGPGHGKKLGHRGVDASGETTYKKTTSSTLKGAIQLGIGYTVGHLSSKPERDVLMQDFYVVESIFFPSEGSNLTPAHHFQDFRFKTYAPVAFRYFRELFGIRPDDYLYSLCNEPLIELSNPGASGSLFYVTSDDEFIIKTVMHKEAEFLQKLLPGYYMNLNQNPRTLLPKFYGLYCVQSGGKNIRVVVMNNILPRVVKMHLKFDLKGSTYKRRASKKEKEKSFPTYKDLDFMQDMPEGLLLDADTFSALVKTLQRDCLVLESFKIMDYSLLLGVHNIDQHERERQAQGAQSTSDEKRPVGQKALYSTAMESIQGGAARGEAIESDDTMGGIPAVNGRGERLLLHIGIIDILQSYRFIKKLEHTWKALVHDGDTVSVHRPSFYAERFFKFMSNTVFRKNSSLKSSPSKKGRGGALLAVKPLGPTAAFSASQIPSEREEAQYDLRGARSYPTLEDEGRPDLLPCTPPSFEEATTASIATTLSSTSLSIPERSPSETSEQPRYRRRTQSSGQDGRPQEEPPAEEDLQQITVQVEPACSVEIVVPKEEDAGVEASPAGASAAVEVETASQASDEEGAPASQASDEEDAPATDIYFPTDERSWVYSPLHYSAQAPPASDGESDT
In short: as §1

[3] = target: T3, scanMAX Kinase assay panel (Homo sapiens, UniProt P78368); conditions: CSNK1G2; 1 uM; read-out: Percent Control (%)
T3 construct: purchased DiscoverX
T3 sequence (P78368 whole entry): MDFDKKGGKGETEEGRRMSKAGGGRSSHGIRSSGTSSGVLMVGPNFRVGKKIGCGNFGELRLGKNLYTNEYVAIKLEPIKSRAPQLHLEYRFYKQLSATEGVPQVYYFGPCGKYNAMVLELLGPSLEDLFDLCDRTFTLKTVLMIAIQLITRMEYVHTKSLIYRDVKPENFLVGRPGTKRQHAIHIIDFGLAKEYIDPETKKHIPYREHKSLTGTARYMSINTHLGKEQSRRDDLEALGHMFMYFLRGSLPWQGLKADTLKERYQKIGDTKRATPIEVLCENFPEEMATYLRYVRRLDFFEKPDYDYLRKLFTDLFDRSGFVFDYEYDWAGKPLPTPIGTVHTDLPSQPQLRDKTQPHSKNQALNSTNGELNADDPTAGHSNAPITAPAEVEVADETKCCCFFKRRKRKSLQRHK
In short: as §1

[4] = target: T4, scanMAX Kinase assay panel (Homo sapiens, UniProt Q9Y243); conditions: AKT3; 1 uM; read-out: Percent Control (%)
T4 construct: purchased DiscoverX
T4 sequence (Q9Y243 whole entry): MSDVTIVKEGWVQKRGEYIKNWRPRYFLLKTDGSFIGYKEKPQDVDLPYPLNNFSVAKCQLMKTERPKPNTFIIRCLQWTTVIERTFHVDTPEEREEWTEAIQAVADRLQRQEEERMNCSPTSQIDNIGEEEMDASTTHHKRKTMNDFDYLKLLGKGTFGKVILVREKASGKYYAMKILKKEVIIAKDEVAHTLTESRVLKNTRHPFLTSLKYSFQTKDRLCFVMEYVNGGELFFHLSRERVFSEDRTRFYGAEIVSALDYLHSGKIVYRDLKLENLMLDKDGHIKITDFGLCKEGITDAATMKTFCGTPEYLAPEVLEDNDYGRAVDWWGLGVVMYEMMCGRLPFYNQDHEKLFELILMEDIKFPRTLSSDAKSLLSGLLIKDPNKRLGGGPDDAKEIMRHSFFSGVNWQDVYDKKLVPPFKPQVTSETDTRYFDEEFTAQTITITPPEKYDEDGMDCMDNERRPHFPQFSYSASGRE
In short: as §1

[5] = target: T5, scanMAX Kinase assay panel (Homo sapiens, UniProt P36507); conditions: MEK2; 1 uM; read-out: Percent Control (%)
T5 construct: purchased DiscoverX
T5 sequence (P36507 whole entry): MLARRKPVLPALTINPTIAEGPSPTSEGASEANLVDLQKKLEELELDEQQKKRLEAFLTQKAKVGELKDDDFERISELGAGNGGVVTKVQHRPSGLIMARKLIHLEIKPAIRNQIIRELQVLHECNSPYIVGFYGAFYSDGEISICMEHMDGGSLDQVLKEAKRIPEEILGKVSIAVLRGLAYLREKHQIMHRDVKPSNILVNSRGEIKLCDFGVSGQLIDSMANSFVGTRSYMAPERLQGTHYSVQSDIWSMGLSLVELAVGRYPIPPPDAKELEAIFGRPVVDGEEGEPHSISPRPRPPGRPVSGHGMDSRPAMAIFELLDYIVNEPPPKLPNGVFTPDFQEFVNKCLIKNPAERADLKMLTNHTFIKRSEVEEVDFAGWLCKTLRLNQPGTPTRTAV
In short: as §1

[6] = target: T6, scanMAX Kinase assay panel (Homo sapiens, UniProt P36888, N841I); conditions: FLT3 (N841I); 1 uM; read-out: Percent Control (%)
T6 construct: purchased DiscoverX
T6 sequence (P36888 27-993 N841I): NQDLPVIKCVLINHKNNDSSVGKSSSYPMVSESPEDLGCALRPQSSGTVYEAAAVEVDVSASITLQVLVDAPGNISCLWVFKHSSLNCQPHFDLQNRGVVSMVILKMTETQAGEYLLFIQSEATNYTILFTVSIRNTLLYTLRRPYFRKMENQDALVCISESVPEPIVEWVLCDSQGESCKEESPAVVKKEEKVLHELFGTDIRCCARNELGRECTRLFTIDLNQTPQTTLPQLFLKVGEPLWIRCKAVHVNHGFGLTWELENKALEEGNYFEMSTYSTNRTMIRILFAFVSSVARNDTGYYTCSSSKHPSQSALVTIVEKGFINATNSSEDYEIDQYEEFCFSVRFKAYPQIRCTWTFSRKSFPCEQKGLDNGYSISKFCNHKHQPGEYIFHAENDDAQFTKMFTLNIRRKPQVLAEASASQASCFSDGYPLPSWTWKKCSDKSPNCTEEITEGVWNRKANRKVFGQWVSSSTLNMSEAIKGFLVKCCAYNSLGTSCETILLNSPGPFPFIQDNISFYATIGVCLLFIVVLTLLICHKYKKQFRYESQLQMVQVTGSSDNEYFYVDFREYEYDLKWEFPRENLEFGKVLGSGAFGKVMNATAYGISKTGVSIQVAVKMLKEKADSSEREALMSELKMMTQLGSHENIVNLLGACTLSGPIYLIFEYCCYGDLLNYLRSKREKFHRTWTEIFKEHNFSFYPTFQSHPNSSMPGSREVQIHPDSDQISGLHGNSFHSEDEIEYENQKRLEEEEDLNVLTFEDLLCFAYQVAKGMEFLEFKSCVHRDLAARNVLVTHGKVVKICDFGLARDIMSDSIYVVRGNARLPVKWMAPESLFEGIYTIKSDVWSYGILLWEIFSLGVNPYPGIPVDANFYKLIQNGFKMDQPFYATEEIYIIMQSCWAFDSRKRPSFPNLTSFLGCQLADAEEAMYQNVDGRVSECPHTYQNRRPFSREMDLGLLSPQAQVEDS
In short: as §1

[7] = target: T7, scanMAX Kinase assay panel (Homo sapiens, UniProt P42336, M1043I); conditions: PIK3CA (M1043I); 1 uM; read-out: Percent Control (%)
T7 construct: purchased DiscoverX
T7 sequence (P42336 whole entry M1043I): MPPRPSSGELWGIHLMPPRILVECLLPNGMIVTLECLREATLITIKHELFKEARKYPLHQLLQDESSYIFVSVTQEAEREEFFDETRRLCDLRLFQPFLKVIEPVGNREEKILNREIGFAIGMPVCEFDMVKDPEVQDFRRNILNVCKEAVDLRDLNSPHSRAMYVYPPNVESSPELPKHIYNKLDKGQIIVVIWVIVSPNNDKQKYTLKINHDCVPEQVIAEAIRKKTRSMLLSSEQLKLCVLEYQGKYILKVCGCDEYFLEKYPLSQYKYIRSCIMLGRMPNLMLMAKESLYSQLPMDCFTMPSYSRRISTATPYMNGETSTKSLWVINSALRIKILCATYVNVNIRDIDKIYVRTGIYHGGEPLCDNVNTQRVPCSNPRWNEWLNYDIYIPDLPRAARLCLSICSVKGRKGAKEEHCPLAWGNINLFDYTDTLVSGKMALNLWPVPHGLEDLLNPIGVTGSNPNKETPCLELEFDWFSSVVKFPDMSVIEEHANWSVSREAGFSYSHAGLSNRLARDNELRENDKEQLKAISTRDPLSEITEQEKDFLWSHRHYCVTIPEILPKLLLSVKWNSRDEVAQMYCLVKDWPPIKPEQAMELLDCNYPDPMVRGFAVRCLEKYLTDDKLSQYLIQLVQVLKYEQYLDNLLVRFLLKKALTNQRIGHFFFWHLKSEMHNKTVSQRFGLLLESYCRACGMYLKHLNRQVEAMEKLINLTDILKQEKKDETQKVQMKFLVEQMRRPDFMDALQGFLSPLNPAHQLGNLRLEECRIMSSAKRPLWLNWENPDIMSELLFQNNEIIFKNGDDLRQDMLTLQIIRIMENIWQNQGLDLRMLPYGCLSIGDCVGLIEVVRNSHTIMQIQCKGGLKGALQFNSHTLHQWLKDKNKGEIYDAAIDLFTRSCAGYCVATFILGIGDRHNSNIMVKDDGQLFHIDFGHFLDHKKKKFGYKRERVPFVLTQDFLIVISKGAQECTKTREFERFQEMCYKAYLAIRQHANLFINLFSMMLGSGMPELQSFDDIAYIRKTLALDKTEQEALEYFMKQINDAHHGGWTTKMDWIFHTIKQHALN
In short: as §1

[8] = target: T8, scanMAX Kinase assay panel (Homo sapiens, UniProt P36897); conditions: TGFBR1; 1 uM; read-out: Percent Control (%)
T8 construct: purchased DiscoverX
T8 sequence (P36897 34-503): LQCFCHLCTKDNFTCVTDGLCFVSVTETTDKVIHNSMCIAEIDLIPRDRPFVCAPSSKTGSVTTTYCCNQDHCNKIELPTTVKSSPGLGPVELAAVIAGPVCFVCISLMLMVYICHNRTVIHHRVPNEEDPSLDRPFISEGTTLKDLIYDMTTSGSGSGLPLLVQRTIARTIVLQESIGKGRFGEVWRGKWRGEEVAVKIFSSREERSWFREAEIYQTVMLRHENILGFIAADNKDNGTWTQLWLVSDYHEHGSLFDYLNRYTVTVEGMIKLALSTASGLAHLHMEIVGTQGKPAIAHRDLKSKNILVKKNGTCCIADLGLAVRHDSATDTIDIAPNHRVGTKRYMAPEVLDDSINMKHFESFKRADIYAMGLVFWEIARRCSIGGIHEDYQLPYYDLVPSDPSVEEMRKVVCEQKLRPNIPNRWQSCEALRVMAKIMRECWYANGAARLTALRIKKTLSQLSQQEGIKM
In short: as §1

[9] = target: T9, scanMAX Kinase assay panel (Homo sapiens, UniProt P53671); conditions: LIMK2; 1 uM; read-out: Percent Control (%)
T9 construct: purchased DiscoverX
T9 sequence (P53671 whole entry): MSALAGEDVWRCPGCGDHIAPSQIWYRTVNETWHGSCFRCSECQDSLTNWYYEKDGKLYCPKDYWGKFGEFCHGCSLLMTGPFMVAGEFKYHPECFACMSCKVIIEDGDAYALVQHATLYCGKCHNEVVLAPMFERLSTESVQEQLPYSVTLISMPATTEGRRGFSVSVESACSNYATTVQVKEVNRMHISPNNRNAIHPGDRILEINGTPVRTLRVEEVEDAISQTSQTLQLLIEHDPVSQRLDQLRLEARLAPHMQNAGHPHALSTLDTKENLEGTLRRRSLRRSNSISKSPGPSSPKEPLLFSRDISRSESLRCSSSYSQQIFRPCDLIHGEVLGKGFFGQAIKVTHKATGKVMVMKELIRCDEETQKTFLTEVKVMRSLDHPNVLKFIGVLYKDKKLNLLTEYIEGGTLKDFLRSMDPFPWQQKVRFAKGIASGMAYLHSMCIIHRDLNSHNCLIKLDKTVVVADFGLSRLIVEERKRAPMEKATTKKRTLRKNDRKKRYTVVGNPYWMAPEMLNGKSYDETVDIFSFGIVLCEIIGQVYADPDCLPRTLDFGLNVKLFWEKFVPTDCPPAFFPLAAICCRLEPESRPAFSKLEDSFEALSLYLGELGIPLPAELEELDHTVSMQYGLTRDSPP
In short: as §1

| SMILES | remaining binding at 1 µM ([1]; ABL1 (H396P)-nonphosphorylated) | remaining binding at 1 µM ([1]; ABL1 (H396P)-phosphorylated) | remaining binding at 1 µM [2] | remaining binding at 1 µM [3] | remaining binding at 1 µM [4] | remaining binding at 1 µM [5] | remaining binding at 1 µM [6] | remaining binding at 1 µM [7] | remaining binding at 1 µM [8] | remaining binding at 1 µM [9] |
| --- | --- | --- | --- | --- | --- | --- | --- | --- | --- | --- |
| Cc1ccc(NC(=O)C2(C(=O)Nc3ccc(F)cc3)CC2)cc1C#Cc1cnc2c(Nc3cnn(C(C)C)c3)cccn12 [Example 78] | 4% | 64% | 92% | 100% | 95% | 97% | 59% | 100% | 100% | 100% |
| Cc1cn(-c2cc(NC(=O)c3ccc(C)c(C#Cc4cnc5c(Nc6cnn(C)c6)cccn45)c3)cc(C(F)(F)F)c2)cn1 [Example 12, 4-methyl-N-(3-(4-methyl-1H-imidazol-1-yl)-5-(trifluoromethyl)phenyl)-3-((8-((1-methyl-1H-pyrazol-4-yl)amino)imidazo[1,2-a]pyridin-3-yl)ethynyl)benzamide] | 0% | 10% | 71% | 94% | 99% | 88% | 28% | 100% | 85% | 50% |
| Cc1ccc(C(=O)Nc2ccc(CN3CCN(C)CC3)c(C(F)(F)F)c2)cc1C#Cc1cnc2c(Nc3cnn(C)c3)cccn12 [Example 1, 4-methyl-3-((8-((1-methyl-1H-pyrazol-4-yl)amino)imidazo[1,2-a]pyridin-3-yl)ethynyl)-N-(4-((4-methylpiperazin-1-yl)methyl)-3-(trifluoromethyl)phenyl)benzamide] | 1% | 0% | 88% | 91% | 99% | 76% | 0% | 90% | 85% | 3% |
